Common to all, as to assay type: biochemical
Common to all, as to details: Table 3; same method as Assay I, different experimental operator

One experiment has as its target T1, VEGFR2 (Homo sapiens, UniProt P35968).
T1 construct: purchased Carna 08-191
As to the kind of experiment: Assay III: kinase inhibition (method of Assay I, different operator), VEGFR2. As to the method: (§1) 1×Kinase reaction buffer was formulated with 1×volume of 5× kinase reaction buffer and 4×volume of water; 5 mM MgCl2; and 1 mM DTT.
(§2) 2.3 Screening of Compounds: • 1. Diluting a compound 4-fold in a dilution plate with DMSO, with a starting compound concentration of 2 mM (4 mM for Nentedanib). • 2. Diluting the compound 40-fold into 1× kinase reaction buffer and shaking it on a shaker for 20 minutes. • 3. Formulating 2×FGFR1 V561M/FGFR2 V564F/FGFR3 K650E/VEGFR2 with 1× of enzyme reaction buffer. • 4. Adding 2 μl FGFR1 V561M/FGFR2 V564F/FGFR3 K650E/VEGFR2 kinase (formulated in step 3) to each well of the reaction plate. • 5. Adding 1 μl of the compound diluted in buffer to each well, sealing the plate with a sealing membrane and centrifuging the plate at 1000 g for 30 seconds and leaving it at room temperature for 10 minutes. • 6. Formulating 2.5×TK-substrate-biotin and ATP mixture with 1× enzyme reaction buffer and adding 2 μl of K-substrate-biotin/ATP mixture to the reaction plate. • 7. Sealing the plate with a sealing membrane and centrifuging the plate at 1000 g for 30 seconds and allowing it to react at room temperature for 50 minutes. • 8. Formulating 4×Sa-XL 665 (250 nM) with HTRF assay buffer. • 9. Adding 5 μl Sa-XL 665 and 5 μl TK-Antibody-Cryptate to each well, centrifuging it at 1000 g for 30 seconds, and allowing it to react for 1 hour at room temperature. • 10. Reading fluorescence signals at 615 nm (Cryptate) and 665 nm (XL665) with Biotek. 3. Data Analysis
(§3) 3.1 Calculation of the ratio for each well: the ratio was calculated as 665/615 nm.
(§4) 3.3 Calculation of IC50 and plotting of inhibition curves for the compounds.
The IC50 (half inhibition concentration) of a compound was obtained using the following non-linear fitting equation, wherein data analysis was performed using Graphpad 6.0 software. Y=Bottom+(Top−Bottom)/(1+10^((Log IC50−X)*Hill Slope)) • X: log value of compound concentration; and Y: inhibition rate (% inh) 3.4 Validation of Results
(§5) Data were exported from Envision and analyzed manually. The ratios were converted to inhibition rates and IC50 was calculated by Prism GraphPad 6.0 from the inhibition rates. IC50 was calculated again by the ratios to verify accuracy of the results.
(§6) Assay III: Determination of Inhibitory Activity Against FGFR Mutants

A further experiment addresses T2, FGFR2 V564F (Homo sapiens, UniProt P21802, V564F).
T2 construct: purchased Signalchem F05-12FG
In words: Assay III: inhibitory activity against FGFR mutants (method of Assay I, different operator). As to the method:
as §1
as §2, with “Formulating 2×FGFR1 V561M/FGFR2 V564F/FGFR3 K650E/VEGFR2 with 1× of enzyme reaction buffer. • 4. Adding 2 μl FGFR1 V561M/FGFR2 V564F/FGFR3 K650E/VEGFR2 kinase (formulated in step 3) to each well of the reaction plate. • 5.” left out
as §3, §4
(§7) The IC50 (half inhibition concentration) of a compound was obtained using the following non-linear fitting equation, wherein data analysis was performed using Graphpad 6.0 software.
as §5, §6

Another experiment concerns the target T3, FGFR3 V555M (Homo sapiens, UniProt P22607, V555M).
T3 construct: purchased Signalchem F06-12GG
The experiment is described as above. The procedure: as §1
as §2, with “Formulating 2×FGFR1 V561M/FGFR2 V564F/FGFR3 K650E/VEGFR2 with 1× of enzyme reaction buffer. • 4. Adding 2 μl FGFR1 V561M/FGFR2 V564F/FGFR3 K650E/VEGFR2 kinase (formulated in step 3) to each well of the reaction plate. • 5.” left out
as §3, §4, §7, §5, §6

A further experiment concerns the target T4, FGFR1 V561M (Homo sapiens, UniProt P11362, V561M).
T4 construct: purchased Signalchem F04-13G
The experiment is described as above. The procedure: as §1
as §2, with “Formulating 2×FGFR1 V561M/FGFR2 V564F/FGFR3 K650E/VEGFR2 with 1× of enzyme reaction buffer. • 4. Adding 2 μl FGFR1 V561M/FGFR2 V564F/FGFR3 K650E/VEGFR2 kinase (formulated in step 3) to each well of the reaction plate. • 5.” left out
as §3, §4, §7, §5, §6

T4 sequence (P11362 22-822 V561M): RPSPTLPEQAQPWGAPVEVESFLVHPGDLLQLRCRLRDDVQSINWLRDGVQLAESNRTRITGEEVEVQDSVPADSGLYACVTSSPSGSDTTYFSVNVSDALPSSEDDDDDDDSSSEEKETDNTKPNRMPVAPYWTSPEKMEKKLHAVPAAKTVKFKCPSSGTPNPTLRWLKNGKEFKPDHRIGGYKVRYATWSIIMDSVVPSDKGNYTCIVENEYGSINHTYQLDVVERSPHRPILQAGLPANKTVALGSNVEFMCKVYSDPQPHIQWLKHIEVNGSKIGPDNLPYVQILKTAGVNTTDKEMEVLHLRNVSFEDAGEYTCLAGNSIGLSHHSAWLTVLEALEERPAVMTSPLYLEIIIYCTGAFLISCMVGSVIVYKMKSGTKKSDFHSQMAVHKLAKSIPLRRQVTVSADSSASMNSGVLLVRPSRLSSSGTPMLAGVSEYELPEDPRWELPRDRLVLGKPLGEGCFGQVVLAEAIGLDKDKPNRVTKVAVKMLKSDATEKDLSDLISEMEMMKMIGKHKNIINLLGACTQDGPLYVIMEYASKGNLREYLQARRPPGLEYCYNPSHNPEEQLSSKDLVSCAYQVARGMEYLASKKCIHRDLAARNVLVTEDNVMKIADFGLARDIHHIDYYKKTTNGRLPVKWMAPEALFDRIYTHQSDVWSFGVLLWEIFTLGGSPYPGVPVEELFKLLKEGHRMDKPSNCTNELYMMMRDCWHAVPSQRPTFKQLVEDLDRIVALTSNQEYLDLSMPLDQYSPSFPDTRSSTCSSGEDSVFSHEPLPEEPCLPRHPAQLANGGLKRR
T2 sequence (P21802 22-821 V564F): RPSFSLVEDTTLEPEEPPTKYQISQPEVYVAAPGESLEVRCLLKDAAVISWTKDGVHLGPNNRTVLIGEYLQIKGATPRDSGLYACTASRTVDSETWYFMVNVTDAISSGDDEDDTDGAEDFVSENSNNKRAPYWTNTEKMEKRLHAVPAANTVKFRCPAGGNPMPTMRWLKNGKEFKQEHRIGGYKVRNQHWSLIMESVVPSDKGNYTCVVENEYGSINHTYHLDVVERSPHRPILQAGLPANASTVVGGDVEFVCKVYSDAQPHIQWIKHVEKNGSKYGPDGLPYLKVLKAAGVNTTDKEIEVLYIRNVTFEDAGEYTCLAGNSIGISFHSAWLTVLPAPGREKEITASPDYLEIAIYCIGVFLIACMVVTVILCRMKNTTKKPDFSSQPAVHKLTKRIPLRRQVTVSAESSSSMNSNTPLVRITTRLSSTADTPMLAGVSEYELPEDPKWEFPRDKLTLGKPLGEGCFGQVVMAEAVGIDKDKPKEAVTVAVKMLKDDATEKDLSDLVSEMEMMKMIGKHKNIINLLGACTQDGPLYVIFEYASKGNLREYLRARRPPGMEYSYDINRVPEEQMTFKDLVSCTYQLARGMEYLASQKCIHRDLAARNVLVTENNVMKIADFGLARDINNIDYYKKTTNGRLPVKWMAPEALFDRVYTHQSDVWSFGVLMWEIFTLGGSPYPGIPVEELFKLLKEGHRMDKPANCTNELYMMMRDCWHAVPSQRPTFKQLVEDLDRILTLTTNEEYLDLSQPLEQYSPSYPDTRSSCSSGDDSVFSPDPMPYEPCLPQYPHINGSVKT
T1 sequence (P35968 20-1356): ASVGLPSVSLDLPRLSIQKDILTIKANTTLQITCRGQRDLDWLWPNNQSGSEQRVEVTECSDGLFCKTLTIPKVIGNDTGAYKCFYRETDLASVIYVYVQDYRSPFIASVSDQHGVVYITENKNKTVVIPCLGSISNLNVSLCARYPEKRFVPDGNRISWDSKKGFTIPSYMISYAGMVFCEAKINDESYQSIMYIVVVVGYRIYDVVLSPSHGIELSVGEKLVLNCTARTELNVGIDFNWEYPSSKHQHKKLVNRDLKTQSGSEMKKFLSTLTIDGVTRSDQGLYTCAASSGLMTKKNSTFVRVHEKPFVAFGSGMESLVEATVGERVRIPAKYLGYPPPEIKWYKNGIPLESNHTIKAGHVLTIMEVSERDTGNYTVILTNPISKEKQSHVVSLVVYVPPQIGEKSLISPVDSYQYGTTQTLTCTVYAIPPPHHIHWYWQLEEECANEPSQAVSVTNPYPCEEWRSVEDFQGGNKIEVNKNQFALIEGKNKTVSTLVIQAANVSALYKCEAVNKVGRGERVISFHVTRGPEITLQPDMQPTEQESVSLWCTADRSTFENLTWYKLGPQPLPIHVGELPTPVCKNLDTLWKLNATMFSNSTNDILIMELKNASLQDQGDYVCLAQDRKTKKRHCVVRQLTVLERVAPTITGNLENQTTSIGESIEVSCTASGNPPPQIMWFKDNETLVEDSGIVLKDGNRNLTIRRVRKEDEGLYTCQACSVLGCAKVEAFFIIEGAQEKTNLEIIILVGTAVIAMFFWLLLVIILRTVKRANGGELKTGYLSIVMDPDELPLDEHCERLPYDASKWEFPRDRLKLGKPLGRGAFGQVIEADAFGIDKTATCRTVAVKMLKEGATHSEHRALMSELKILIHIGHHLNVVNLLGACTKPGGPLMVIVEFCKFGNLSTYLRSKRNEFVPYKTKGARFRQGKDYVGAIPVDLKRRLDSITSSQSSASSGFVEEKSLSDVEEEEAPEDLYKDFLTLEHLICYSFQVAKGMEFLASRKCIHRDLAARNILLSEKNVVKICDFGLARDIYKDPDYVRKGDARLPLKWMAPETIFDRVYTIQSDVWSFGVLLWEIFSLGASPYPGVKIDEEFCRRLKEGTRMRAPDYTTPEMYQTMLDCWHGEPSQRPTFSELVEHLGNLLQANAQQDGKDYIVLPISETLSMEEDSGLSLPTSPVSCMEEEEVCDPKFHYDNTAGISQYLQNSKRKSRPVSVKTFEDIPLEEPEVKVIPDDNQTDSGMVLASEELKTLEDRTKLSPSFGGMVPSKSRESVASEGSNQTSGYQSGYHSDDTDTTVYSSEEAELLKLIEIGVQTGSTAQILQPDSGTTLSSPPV
T3 sequence (P22607 23-806 V555M): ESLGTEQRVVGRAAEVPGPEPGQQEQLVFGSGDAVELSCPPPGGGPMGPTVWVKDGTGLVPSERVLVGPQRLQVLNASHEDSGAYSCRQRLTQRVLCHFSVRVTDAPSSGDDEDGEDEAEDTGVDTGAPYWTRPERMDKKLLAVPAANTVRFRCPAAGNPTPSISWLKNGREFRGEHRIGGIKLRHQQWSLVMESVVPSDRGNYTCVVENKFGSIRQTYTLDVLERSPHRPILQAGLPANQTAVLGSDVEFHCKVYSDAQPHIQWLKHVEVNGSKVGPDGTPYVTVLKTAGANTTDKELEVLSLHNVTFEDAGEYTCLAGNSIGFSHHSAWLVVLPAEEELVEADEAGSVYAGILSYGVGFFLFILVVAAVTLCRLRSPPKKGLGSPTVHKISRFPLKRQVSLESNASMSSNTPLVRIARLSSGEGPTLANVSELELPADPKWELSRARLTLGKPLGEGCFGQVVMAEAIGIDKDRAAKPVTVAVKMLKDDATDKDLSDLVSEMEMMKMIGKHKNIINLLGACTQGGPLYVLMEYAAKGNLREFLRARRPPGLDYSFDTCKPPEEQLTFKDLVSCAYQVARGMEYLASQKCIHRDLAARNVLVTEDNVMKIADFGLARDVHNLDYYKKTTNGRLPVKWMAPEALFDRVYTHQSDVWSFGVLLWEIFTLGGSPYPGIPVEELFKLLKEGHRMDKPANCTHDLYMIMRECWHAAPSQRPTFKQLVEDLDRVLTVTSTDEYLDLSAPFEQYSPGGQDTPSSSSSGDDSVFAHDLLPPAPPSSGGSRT

One may read the IC50 as the concentration that inhibits the measured activity by half. Read a high IC50 as a need for much substance. With `CC(Oc1ccc2[nH]nc(C(=O)Nc3ccc(CN4CCOCC4)cc3)c2c1)c1c(Cl)cncc1Cl` (centres unmarked) [Compound 30, 5-(1-(3,5-dichloropyridin-4-yl)ethoxy)-N-(4-(morpholinomethyl)phenyl)-1H-indazole-3-carboxamide], the IC50 amounted to 729 nM against VEGFR2, 3.7 nM on FGFR2 V564F, 7.6 nM at FGFR3 V555M and 36 nM against FGFR1 V561M.

Take `C[C@@H](Oc1ccc2[nH]nc(C(=O)Nc3cnn(CCN(C)C)c3)c2c1)c1c(Cl)cncc1Cl` [Compound 36, (R)-5-(1-(3,5-dichloropyridin-4-yl)ethoxy)-N-(1-(2-(dimethylamino)ethyl)-1H-pyrazol-4-yl)-1H-indazole-3-carboxamide]: the IC50 at VEGFR2 was determined as 41 nM; against FGFR2 V564F it was 0.07 nM; on FGFR3 V555M, 0.11 nM; on FGFR1 V561M, 0.88 nM.

Regarding `C[C@@H](Oc1ccc2[nH]nc(C(=O)Nc3cnn(Cc4cccnc4)c3)c2c1)c1c(Cl)cncc1Cl` [Compound 49, (R)-5-(1-(3,5-dichloropyridin-4-yl)ethoxy)-N-(1-(pyridin-3-ylmethyl)-1H-pyrazol-4-yl)-1H-indazole-3-carboxamide], the IC50 at VEGFR2 amounted to 110 nM; on FGFR2 V564F, 0.55 nM; at FGFR3 V555M, 1.4 nM; on FGFR1 V561M, 0.51 nM.

For the molecule `C[C@@H](Oc1ccc2[nH]nc(C(=O)Nc3cnn(C4CC(O)C4)c3)c2c1)c1c(Cl)cncc1Cl` (stereo partly drawn) [Compound 35, (R)-5-(1-(3,5-dichloropyridin-4-yl)ethoxy)-N-(1-(3-hydroxycyclobutyl)-1H-pyrazol-4-yl)-1H-indazole-3-carboxamide], the IC50 against VEGFR2 was found to be 89 nM; at FGFR2 V564F, 0.16 nM; on FGFR3 V555M, 0.27 nM; on FGFR1 V561M it was 0.29 nM.

As for `CCN1CCC(Cn2cc(NC(=O)c3n[nH]c4ccc(O[C@H](C)c5c(Cl)cncc5Cl)cc34)cn2)CC1` [Compound 40, (R)-5-(1-(3,5-dichloropyridin-4-yl)ethoxy)-N-(1-((1-ethylpiperidin-4-yl)methyl)-1H-pyrazol-4-yl)-1H-indazole-3-carboxamide], the IC50 against VEGFR2 was found to be 33 nM; on FGFR2 V564F it was 1.3 nM; against FGFR3 V555M, 0.02 nM; against FGFR1 V561M it was 0.42 nM.

On to `CC(Oc1ccc2[nH]nc(C(=O)Nc3cnn(CC(F)(F)F)c3)c2c1)c1c(Cl)cncc1Cl` (centres unmarked) [Compound 28, 5-(1-(3,5-dichloropyridin-4-yl)ethoxy)-N-(1-(2,2,2-trifluoroethyl)-1H-pyrazol-4-yl)-1H-indazole-3-carboxamide], for which the IC50 against VEGFR2 was found to be 68 nM; at FGFR2 V564F it was 2.6 nM; on FGFR3 V555M, 3 nM; on FGFR1 V561M it was 11 nM.

In the case of `CCN1CC(n2cc(NC(=O)c3n[nH]c4ccc(O[C@H](C)c5c(Cl)cncc5Cl)cc34)cn2)C1` [Compound 31, (R)-5-(1-(3,5-dichloropyridin-4-yl)ethoxy)-N-(1-(1-ethyl-azetidin-3-yl)-1H-pyrazol-4-yl)-1H-indazole-3-carboxamide], the IC50 at VEGFR2 came to 54 nM; on FGFR2 V564F it was 0.11 nM; against FGFR3 V555M, 0.07 nM; against FGFR1 V561M it was 0.93 nM.

With `C[C@@H](Oc1ccc2[nH]nc(C(=O)Nc3cnn(CC4CCCCN4C)c3)c2c1)c1c(Cl)cncc1Cl` (stereo partly drawn) [Compound 45, 5-((R)-1-(3,5-dichloropyridin-4-yl)ethoxy)-N-(1-((1-methylpiperidin-2-yl)methyl)-1H-pyrazol-4-yl)-1H-indazole-3-carboxamide], the IC50 turned out to be 62 nM at VEGFR2, 0.1 nM at FGFR2 V564F, 0.14 nM against FGFR3 V555M and 0.34 nM on FGFR1 V561M.

As for `CC(Oc1ccc2[nH]nc(C(=O)Nc3cnn(CCCO)c3)c2c1)c1c(Cl)cncc1Cl` (centres unmarked) [Compound 29, 5-(1-(3,5-dichloropyridin-4-yl)ethoxy)-N-(1-(3-hydroxypropyl)-1H-pyrazol-4-yl)-1H-indazole-3-carboxamide], the IC50 against VEGFR2 amounted to 144 nM; at FGFR2 V564F it was 0.93 nM; on FGFR3 V555M, 0.25 nM; on FGFR1 V561M, 2.3 nM.

`CC(Oc1ccc2[nH]nc(C(=O)Nc3cnn(CC(=O)N(C)C)c3)c2c1)c1c(Cl)cncc1Cl` (centres unmarked) [Compound 24, 5-(1-(3,5-dichloropyridin-4-yl)ethoxy)-N-(1-(2-(dimethylamino)-2-oxoethyl)-1H-pyrazol-4-yl)-1H-indazole-3-carboxamide]: the IC50 against VEGFR2 was 201 nM; at FGFR2 V564F, 0.43 nM; on FGFR3 V555M, 1.3 nM; on FGFR1 V561M, 3.3 nM.

Consider `C[C@@H](Oc1ccc2[nH]nc(C(=O)Nc3cnn(C4CCOCC4)c3)c2c1)c1c(Cl)cncc1Cl` [Compound 47, (R)-5-(1-(3,5-dichloropyridin-4-yl)ethoxy)-N-(1-(tetrahydro-2H-pyran-4-yl)-1H-pyrazol-4-yl)-1H-indazole-3-carboxamide], for which the IC50 came out at 194 nM against VEGFR2, 1.2 nM on FGFR2 V564F, 2.1 nM against FGFR3 V555M and 2.3 nM against FGFR1 V561M.

As to `C[C@@H](Oc1ccc2[nH]nc(C(=O)Nc3cnn(CC(C)(C)O)c3)c2c1)c1c(Cl)cncc1Cl` [Compound 38, (R)-5-(1-(3,5-dichloropyridin-4-yl)ethoxy)-N-(1-(2-hydroxy-2-methylpropyl)-1H-pyrazol-4-yl)-1H-indazole-3-carboxamide], the IC50 came out at 61 nM at VEGFR2, 0.4 nM on FGFR2 V564F, 0.59 nM on FGFR3 V555M and 3.7 nM at FGFR1 V561M.

With `C[C@@H](Oc1ccc2[nH]nc(C(=O)Nc3cnn(Cc4ccncc4)c3)c2c1)c1c(Cl)cncc1Cl` [Compound 50, (R)-5-(1-(3,5-dichloropyridin-4-yl)ethoxy)-N-(1-(pyridin-4-ylmethyl)-1H-pyrazol-4-yl)-1H-indazole-3-carboxamide], the half-inhibitory concentration (IC50) was 152 nM against VEGFR2, 0.37 nM on FGFR2 V564F, 0.64 nM on FGFR3 V555M and 1.7 nM at FGFR1 V561M.

Consider `CC(Oc1ccc2[nH]nc(C(=O)Nc3cnn(CCN4CCCC4)c3)c2c1)c1c(Cl)cncc1Cl` (centres unmarked) [Compound 25, 5-(1-(3,5-dichloropyridin-4-yl)ethoxy)-N-(1-(2-(pyrrolidin-1-yl)ethyl)-1H-pyrazol-4-yl)-1H-indazole-3-carboxamide], for which the IC50 against VEGFR2 was determined as 145 nM; against FGFR2 V564F, 0.26 nM; on FGFR3 V555M it was 0.21 nM; against FGFR1 V561M, 3.6 nM.

In the case of `CC(Oc1ccc2[nH]nc(C(=O)Nc3cnn(CC(=O)N4CCCC4)c3)c2c1)c1c(Cl)cncc1Cl` (centres unmarked) [Compound 23, 5-(1-(3,5-dichloropyridin-4-yl)ethoxy)-N-(1-(2-oxo-2-(pyrrolidin-1-yl)ethyl)-1H-pyrazol-4-yl)-1H-indazole-3-carboxamide], the IC50 is 114 nM against VEGFR2, 0.47 nM against FGFR2 V564F, 0.92 nM against FGFR3 V555M and 2.2 nM at FGFR1 V561M.

Regarding `C[C@@H](Oc1ccc2[nH]nc(C(=O)Nc3cnn(CCN4CCOCC4)c3)c2c1)c1c(Cl)cncc1Cl` [Compound 37, (R)-5-(1-(3,5-dichloropyridin-4-yl)ethoxy)-N-(1-(2-morpholinoethyl)-1H-pyrazol-4-yl)-1H-indazole-3-carboxamide], the IC50 against VEGFR2 was 79 nM; at FGFR2 V564F it was 0.44 nM; on FGFR3 V555M, 0.16 nM; against FGFR1 V561M, 1.6 nM.

Regarding `CCN1CCN(c2ccc(Nc3cc(N(C)C(=O)Nc4c(Cl)c(OC)cc(OC)c4Cl)ncn3)cc2)CC1` [Infigratinib, reference compound], the IC50 against VEGFR2 was 73 nM.
